Source: US20110213033A1, “SKIN CONDITIONER” (Kabushiki Kaisha Soken, priority 1998, published 2011)

Tests used:
atopic skin = assay: 2-hour moisture retention duration test on atopic skin; format: in vivo, human; details: FIGS. 21 through 31
Description: A 2-hour moisture retention duration test was performed on atopic skin.
Panelists: 7 persons with atopic skin
Test Method: Same as Test Example 2
Measurement Method: Same as Text Example 2
Test Apparatus: Same as Test Example 2

[1] = system: normal human skin fibroblasts; assay: Collagen production recovery test on damaged fibroblasts; format: cell-based; details: hypoxanthine/xanthine oxidase damage; samples at final concentration 3.3%, 24 hours at 37° C.; FIG. 1
Description: A collagen production recovery test was conducted on damaged fibroblasts. Six to eight subcultures of normal human skin fibroblasts (Physicochemical Research Institute, Cell Development Bank BIRGB) were used in the test. […] Measurement of collagen production ability of a confluent in the steady state was performed according to the method of Webster, et al. based on the uptake of ^3H-proline into the produced collagen. […] Since proline is a main component of the amino acids that compose collagen, fibroblasts are cultured in a medium containing ^3H-proline, and the ^3H activity taken up into collagen in the cells is measured. Units are in d.p.m., and represent the number of […] of radioactivity released per minute.

SMILES	moisture retention duration (30 to 120 minutes after application) (atopic skin)	collagen production ability of fibroblasts damaged by active oxygen (3H-proline uptake into collagen) [1]
N=C(N)NCCC[C@H](N)C(=O)O [L-arginine]	continuation of moisture retention was observed	significantly improved
NCCO [ethanolamine]	continuation of moisture retention was observed	significantly improved
